From patent US7485651B2, “Compounds with activity on muscarinic receptors” (Acadia Pharmaceuticals, Inc., priority 1998, dated 2009)

Assays:
Assay type in all cases: cell-based
[1] = molecular target: T1, α-adrenergic receptor subtype 2B (Homo sapiens, UniProt P18089); assay: Test against other receptors: α-adrenergic 2B
T1 sequence (P18089 1-450): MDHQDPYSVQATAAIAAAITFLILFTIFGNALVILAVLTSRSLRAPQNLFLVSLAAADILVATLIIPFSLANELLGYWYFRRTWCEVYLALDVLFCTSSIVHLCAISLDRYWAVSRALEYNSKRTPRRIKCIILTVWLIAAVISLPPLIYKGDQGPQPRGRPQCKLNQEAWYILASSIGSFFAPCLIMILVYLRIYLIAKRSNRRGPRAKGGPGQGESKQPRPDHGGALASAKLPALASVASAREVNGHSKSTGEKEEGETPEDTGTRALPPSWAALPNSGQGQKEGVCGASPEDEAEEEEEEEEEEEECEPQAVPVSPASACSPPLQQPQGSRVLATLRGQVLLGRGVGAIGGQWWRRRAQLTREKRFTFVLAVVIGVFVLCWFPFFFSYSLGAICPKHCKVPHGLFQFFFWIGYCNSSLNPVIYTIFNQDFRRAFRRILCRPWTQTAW

[2] = molecular target: T2, α-adrenergic receptor subtype 1A (Homo sapiens, UniProt P35348); assay: Test against other receptors: α-adrenergic 1A
T2 sequence (P35348 1-466): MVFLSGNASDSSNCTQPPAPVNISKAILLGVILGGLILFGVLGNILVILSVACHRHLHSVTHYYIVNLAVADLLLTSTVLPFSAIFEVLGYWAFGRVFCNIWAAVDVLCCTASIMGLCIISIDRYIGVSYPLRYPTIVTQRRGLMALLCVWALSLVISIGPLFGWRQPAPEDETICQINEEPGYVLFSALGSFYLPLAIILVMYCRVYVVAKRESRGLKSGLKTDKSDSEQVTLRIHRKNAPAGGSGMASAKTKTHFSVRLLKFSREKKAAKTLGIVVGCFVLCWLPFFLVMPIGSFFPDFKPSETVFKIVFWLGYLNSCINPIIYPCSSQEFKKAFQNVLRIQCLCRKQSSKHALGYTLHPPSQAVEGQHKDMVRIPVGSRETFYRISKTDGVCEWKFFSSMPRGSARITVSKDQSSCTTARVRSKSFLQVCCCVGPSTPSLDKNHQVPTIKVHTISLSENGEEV

[3] = molecular target: T3, α-adrenergic receptor subtype 1B (Homo sapiens, UniProt P35368); assay: Test against other receptors: α-adrenergic 1B
T3 sequence (P35368 1-520): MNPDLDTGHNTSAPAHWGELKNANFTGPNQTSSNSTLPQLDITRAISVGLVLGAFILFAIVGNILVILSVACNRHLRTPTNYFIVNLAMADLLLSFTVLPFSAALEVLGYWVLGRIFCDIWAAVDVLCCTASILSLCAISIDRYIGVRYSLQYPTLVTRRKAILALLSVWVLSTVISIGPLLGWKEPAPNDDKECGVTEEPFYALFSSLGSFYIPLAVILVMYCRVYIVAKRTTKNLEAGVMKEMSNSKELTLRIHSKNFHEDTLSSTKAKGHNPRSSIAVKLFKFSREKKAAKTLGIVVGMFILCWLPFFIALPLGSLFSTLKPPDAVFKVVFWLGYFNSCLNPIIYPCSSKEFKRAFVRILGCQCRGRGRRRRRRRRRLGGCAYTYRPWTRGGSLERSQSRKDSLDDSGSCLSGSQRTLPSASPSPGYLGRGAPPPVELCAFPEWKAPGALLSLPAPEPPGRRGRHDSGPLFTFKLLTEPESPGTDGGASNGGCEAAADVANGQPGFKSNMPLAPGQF

[4] = molecular target: T4, α-adrenergic receptor subtype 1D (Homo sapiens, UniProt P25100); assay: Test against other receptors: α-adrenergic 1D
T4 sequence (P25100 1-572): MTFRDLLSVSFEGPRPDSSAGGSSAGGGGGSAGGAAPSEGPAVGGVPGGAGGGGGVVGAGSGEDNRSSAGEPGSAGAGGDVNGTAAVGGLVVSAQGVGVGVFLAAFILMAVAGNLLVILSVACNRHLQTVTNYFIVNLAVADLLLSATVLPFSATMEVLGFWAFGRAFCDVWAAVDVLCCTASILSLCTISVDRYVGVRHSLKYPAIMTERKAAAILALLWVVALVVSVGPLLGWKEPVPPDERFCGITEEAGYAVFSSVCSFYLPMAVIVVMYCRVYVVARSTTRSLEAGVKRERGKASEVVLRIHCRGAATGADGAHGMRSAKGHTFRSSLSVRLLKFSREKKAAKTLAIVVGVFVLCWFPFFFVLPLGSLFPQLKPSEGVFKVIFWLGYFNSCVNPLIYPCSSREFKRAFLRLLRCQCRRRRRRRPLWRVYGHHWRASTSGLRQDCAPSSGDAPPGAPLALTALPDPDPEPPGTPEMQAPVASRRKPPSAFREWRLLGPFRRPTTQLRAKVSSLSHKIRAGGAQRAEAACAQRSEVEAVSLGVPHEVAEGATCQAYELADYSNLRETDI

With `CCCCC1CCN(CCCC(=O)c2ccccc2C)CC1` [Compound A, 4-n-Butyl-1-[4-(2-methylphenyl)-4-oxo-1-butyl]piperidine] the agonist activity [1] was “no significant activity”, the “inhibition of receptor responses (antagonist experiments)” value [1] was “did not inhibit” and the agonist activity [2] was “no significant activity”. The agonist activity [3] was “no significant activity” and the agonist activity [4] was “no significant activity”.
